One data set deals with T1, human mGluR5d (Homo sapiens, UniProt P41594).
T1 construct: expressed in transfected cells; The cells are kept under Hygromycin B and Zeocin selection; The separate IP3 assay names GHEK cells
The data set is described as follows: FLIPR assay, functional assessment of mGluR5 antagonism (intracellular calcium mobilization). The data set is classed as cell-based. To be noted: cells expressing human mGluR5d; read-out: FLIPR hmGluR5d. An excerpt: Functional Assessment of mGluR5 Antagonism in Cell Lines Expressing mGluR5D
The properties of the compounds of the invention can be analyzed using standard assays for pharmacological activity. Examples of glutamate receptor assays are well known in the art as described in for example Aramori et al., Neuron 8:757 (1992), Tanabe et al., Neuron 8:169 (1992), Miller et al., J. Neuroscience 15: 6103 (1995), Balazs, et al., J. Neurochemistry 69:151 (1997). The methodology described in these publications is incorporated herein by reference. Conveniently, the compounds of the invention can be studied by means of an assay (FLIPR) that measures the mobilization of intracellular calcium, [Ca^2+]i in cells expressing mGluR5 or another assay (IP3) that measures inositol phosphate turnover.
Cells expressing human mGluR5d as described in WO97/05252 cultured in a mixture of high glucose DMEM with Glutamax (31966-021)(500 mL), 10% dialyzed fetal bovine serum (Hyclone #SH30079.03)(56 mL), 200 μg/mL Hygromycin B (Invitrogen 45-0430, 50 mg/mL)(2.2 mL), 200 μg/mL Zeocin (Invitrogen #R250-01; 100 mg/l mL)(1.1 mL) are seeded at a density of 100,000 cells per well on collagen coated clear bottom 96-well plates with black sides and cells were allowed to adhere over night before experiments. All assays are done in a buffer containing 146 mM NaCl, 5 mM KCl, 1 mM MgCl2, 1 mM CaCl2, 20 mM HEPES, 1 mg/mL glucose and 1 mg/mL BSA Fraction IV (pH 7.4). Cell cultures in the 96-well plates are loaded for 60 minutes in the above mentioned buffer containing 6 μM of the acetoxymethyl ester form of the fluorescent calcium indicator fluo-3 (Molecular Probes, Eugene, Oreg.) in 0.025% pluronic acid (a proprietary, non-ionic surfactant polyol—CAS Number 9003-11-6). […] The fluorescence signal is sampled 50 times at 1-second intervals followed by 3 samples at 5-second intervals immediately after each of the two additions. Responses are measured as the difference between the peak heights of the response to agonist, less the background fluorescence within the sample period. […]
(In general: Calcium assays in cells follow changes in intracellular calcium, usually with a dye or a luminescent sensor.)

The nature of data set [1]: Determination of brain to plasma ratio in rat. It is filed as in vivo. To be noted: brain and plasma, female Sprague Dawley rats, read-out: Brain/Plasma Ratio of compound in Rat. How it is done: Brain to plasma ratios are estimated in female Sprague Dawley rats. The compound is dissolved in water or another appropriate vehicle. For determination of brain to plasma ratio the compound is administrated as a subcutaneous, or an intravenous bolus injection, or an intravenous infusion, or an oral administration. At a predetermined time point after the administration a blood sample is taken with cardiac puncture. The rat is terminated by cutting the heart open, and the brain is immediately retained. The blood samples are collected in heparinized tubes and centrifuged within 30 minutes, in order to separate the plasma from the blood cells. The plasma is transferred to 96-well plates and stored at −20° C. until analysis. The brains are divided in half, and each half is placed in a pre-tarred tube and stored at −20° C. until analysis. Prior to the analysis, the brain samples are thawed and 3 mL/g brain tissue of distilled water is added to the tubes. The brain samples are sonicated in an ice bath until the samples are homogenized. Both brain and plasma samples are precipitated with acetonitrile. After centrifugation, the supernatant is diluted with 0.2% formic acid. Analysis is performed on a short reversed-phase HPLC column with rapid gradient elution and MSMS detection using a triple quadrupole instrument with electrospray ionisation and Selected Reaction Monitoring (SRM) acquisition. Liquid-liquid extraction may be used as an alternative sample clean-up. The samples are extracted, by shaking, to an organic solvent after addition of a suitable buffer. An aliquot of the organic layer is transferred to a new vial and evaporated to dryness under a stream of nitrogen. After reconstitution of the residuals the samples are ready for injection onto the HPLC column.

Here are results for three compounds from patent US20090111824A1, “AMIDE LINKED HETEROAROMATIC DERIVATIVES AS MODULATORS OF MGLUR5” (AstraZeneca AB, priority 2007, published 2009).

Each structure is given as a SMILES string.

T1 sequence (P41594 21-942 isoform P41594-3 limits assumed): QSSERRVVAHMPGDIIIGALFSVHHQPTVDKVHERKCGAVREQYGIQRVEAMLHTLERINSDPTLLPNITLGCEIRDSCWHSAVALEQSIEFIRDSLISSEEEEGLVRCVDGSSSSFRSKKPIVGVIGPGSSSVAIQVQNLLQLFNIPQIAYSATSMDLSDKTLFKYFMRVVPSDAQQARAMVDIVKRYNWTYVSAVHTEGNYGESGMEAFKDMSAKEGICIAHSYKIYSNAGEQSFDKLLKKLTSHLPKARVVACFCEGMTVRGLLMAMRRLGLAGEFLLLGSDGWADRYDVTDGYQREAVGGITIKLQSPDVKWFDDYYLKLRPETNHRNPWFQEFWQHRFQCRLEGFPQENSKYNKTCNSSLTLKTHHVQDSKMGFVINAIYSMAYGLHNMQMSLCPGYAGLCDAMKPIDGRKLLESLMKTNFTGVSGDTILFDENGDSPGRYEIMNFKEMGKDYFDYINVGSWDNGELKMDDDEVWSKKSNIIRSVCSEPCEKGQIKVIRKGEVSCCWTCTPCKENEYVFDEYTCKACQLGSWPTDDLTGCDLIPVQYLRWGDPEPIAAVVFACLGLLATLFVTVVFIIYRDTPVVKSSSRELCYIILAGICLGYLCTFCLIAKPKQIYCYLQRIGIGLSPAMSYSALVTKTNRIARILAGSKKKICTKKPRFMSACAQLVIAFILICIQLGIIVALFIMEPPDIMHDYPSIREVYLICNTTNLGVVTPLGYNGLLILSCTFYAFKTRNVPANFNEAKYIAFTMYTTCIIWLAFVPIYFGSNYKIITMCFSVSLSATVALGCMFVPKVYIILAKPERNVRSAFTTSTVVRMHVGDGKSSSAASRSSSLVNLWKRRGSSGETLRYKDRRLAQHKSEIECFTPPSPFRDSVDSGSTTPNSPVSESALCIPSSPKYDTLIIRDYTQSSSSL

Turning to `CN(C(=O)c1cc(-c2cccc(Cl)c2)on1)c1nnc(-c2cn[nH]c(=O)c2)n1C` [Example 3, 5-(3-Chlorophenyl)-N-methyl-N-[4-methyl-5-(6-oxo-1,6-dihydropyridazin-4-yl)-4H-1,2,4-triazol-3-yl]isoxazole-3-carboxamide], at human mGluR5d, the IC50 worked out at 62 nM. Besides, the Kp in data set [1] worked out at 0.19.

In the case of `CN(C(=O)c1cc(-c2cccc(Cl)c2)on1)c1nnc(-c2ccncc2)n1C` [Example 1, 5-(3-Chlorophenyl)-N-methyl-N-(4-methyl-5-pyridin-4-yl-4H-1,2,4-triazol-3-yl)isoxazole-3-carboxamide], on human mGluR5d, the IC50 is 37 nM. Further, the Kp in data set [1] came to 0.26.

With `Cc1cccc(-n2nnc(C(=O)N(C)c3nnc(-c4cn[nH]c(=O)c4)n3C)n2)c1` [Example 4, N-Methyl-N-[4-methyl-5-(6-oxo-1,6-dihydropyridazin-4-yl)-4H-1,2,4-triazol-3-yl]-2-(3-methylphenyl)-2H-tetrazole-5-carboxamide], on human mGluR5d, the IC50 was 567 nM. Also, in data set [1], the Kp was less than 0.01.
